Measured values as given in patent US6900019B1, “In-situ cell extraction and assay method” (Amersham Biosciences UK Limited, priority 1997, dated 2005).

How the values were obtained:
[1] = tested on: Mouse 3T3 cells; test: Intracellular prostaglandin E2 in A23187-stimulated mouse 3T3 cells (EIA); assay type: cell-based; conditions: 100 μM A23187, 5 minutes
Protocol: Mouse 3T3 cells were cultured in DMEM media containing 10% (v/v) foetal calf sera (FCS). For PGE2 assays, cells were seeded into standard 96-well tissue culture plates in 100 μl volumes (between 10^5-10^6 cells/ml). Cells were cultured overnight at 37° C. in a 95% air/5% CO2 atmosphere. At this stage a check was made to ensure cells remained viable with Trypan blue exclusion.
On day 2, working solutions of A23187 (1-100 μM final concentration) were prepared in DMEM media in order to stimulate the production of PGE2. Two controls were prepared (a DMSO and a culture media only control). Here cells were cultured in the absence of A23187. Test cell cultures were stimulated with the calcium ionophore A23187 for 5 minutes at room temperature. The culture supernatant was decanted, cells were washed with phosphate buffered saline and lysed with 100 μl/well 0.5% (w/v) DTAB prepared in assay buffer. A check for cell lysis was made with a second Trypan blue exclusion test.
Working PGE2 standards (2.5-320 pg/well) were prepared in polypropylene tubes with assay buffer containing 0.5% (w/v) DTAB. […] Non-specific binding was measured in the absence of PGE2 antisera. […] The optical densities were determined with a microtitre plate spectrophotometer set at 450 nm. Intracellular PGE2 levels were determined using log/linear analysis with reference to a standard curve. […]

[2] = tested on: ECV304 cells; test: Intracellular IL-6 from IL-1β stimulated ECV304 cells (ELISA); assay type: cell-based, human; conditions: 500 pg/ml IL-1β overnight
Protocol: ECV304 cells were cultured in M-199 media containing 10% (v/v) foetal calf sera (FCS). For IL-6 assays, cells were seeded into standard 96-well tissue culture plates in 100 μl volumes (between 10^5-10^6 cells/ml). Cells were cultured overnight at 37° C. in a 95% air/5% CO2 atmosphere. On day 2 working solutions of IL-1β (2-500 pg/ml; final concentration) were prepared in M-199 media in order to stimulate the production of IL-6. A culture media blank was prepared with cultured cells grown in the absence of IL-1β. Cells were again cultured overnight at 37° C. in a 95% air/5% CO2 atmosphere. On day 3, a 1% (wt) solution of DTAB was prepared in standard diluent. […]
Working standards (10.24400 pg/ml IL-6) were prepared in polypropylene tubes using assay buffer containing 1% (w/v) DTAB. […] Non-specific binding was measured in the absence of IL-6 (zero IL-6 standard). […] The optical density was determined with a microtitre plate spectrophotometer set at 450 nm. Interleukin-6 levels were determined using log/linear analysis with reference to a standard curve. […]
ECV304 cells were seeded at a density of 100,000 cells per well and cultured overnight to confluence in standard 96-well tissue culture plates as described under the methods section. […] Levels of IL-6 were measured in the samples with ELISA (the biotinylated antibody was prepared in the presence of 3% (w/v) alpha-cyclodextrin).

| Molecule | Intracellular PGE2 levels [1] | Intracellular IL-6 levels [2] |
| --- | --- | --- |
| CNc1ccc2oc(C[C@H]3O[C@@]4(CC[C@H]3C)O[C@H]([C@H](C)C(=O)c3ccc[nH]3)[C@H](C)C[C@H]4C)nc2c1C(=O)O [A23187] | over 400 pg/10^6 cells | – |
| IL-1β: Interleukin-1β (Amersham, ARM 17005), used to stimulate the production of IL-6 | – | over 400 pg/10^6 cells |
